According to patent US6124323A, “4-substituted piperidine analogs and their use as subtype selective NMDA receptor antagonists” (Warner-Lambert Company, priority 1998, dated 2000):
Counter-ions that a name gives are not always drawn.

Tests used:
[1] = target: T1, NMDA receptor subunits 1A/2B (Rattus norvegicus, UniProt P35439+Q00960); assay: Electrophysiological assay at NMDA receptor subunits expressed in Xenopus oocytes, 1A/2B; assay type: cell-based; details: Xenopus oocytes; glutamate 100 μm and glycine 1-100 μm; read-out: Subunits IC50, 1A/2B
T1 construct: expressed in transfected cells; host or cells: Xenopus laevis oocytes (cRNA injection; clones from Dr. P. H. Seeburg)
T1 sequence (Q00960 27-1482, other chains not shown): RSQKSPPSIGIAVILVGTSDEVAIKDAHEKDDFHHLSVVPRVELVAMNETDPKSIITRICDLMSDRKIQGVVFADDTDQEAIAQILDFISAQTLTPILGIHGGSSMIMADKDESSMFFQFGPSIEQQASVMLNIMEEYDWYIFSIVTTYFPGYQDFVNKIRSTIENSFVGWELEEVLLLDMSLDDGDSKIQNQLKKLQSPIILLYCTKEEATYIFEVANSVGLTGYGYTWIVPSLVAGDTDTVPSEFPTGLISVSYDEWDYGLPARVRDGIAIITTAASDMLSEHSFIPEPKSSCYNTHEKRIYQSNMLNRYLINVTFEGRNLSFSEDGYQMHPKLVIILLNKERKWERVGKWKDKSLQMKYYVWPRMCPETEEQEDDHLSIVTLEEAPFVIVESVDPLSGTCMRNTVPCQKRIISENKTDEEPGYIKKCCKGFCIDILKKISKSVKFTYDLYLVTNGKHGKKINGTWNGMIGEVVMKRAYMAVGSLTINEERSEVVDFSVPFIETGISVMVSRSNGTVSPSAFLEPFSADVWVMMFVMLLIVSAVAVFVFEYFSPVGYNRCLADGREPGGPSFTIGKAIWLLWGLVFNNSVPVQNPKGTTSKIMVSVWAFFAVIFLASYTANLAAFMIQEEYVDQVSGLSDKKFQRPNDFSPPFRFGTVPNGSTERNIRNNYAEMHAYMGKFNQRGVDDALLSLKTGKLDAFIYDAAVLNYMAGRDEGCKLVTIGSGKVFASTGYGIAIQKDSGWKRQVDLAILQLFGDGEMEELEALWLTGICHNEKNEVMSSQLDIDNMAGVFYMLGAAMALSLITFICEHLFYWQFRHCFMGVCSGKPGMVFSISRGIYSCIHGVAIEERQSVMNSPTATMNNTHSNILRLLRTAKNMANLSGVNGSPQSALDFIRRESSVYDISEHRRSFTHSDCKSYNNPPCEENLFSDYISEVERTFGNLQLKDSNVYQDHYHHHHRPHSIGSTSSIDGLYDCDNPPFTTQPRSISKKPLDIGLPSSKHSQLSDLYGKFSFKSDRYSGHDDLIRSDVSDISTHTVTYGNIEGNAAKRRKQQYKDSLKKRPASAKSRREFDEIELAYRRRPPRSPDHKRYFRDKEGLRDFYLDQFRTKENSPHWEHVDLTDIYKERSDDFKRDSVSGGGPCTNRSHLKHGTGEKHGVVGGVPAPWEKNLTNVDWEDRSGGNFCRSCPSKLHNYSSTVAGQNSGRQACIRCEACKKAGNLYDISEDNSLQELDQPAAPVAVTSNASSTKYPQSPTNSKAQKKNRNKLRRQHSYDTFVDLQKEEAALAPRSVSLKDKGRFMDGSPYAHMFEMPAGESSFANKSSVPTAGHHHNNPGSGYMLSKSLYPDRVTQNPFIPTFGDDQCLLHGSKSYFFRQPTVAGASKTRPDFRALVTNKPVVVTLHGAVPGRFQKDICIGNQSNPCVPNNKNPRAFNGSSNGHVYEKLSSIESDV
Procedure: (§1) Many of the properties of native NMDA receptors are seen in recombinant homomeric NR1 receptors. These properties are altered by the NR2 subunits. Recombinant NMDA receptors expressed in Xenopus oocytes have been studied by voltage-clamp recording, as has developmental and regional expression of the mRNAs encoding NMDA receptor subunits. Electrophysiological assays were utilized to characterize the actions of compounds at NMDA receptors expressed in Xenopus oocytes. The compounds were assayed at four subunit combinations of cloned rat NMDA receptors, corresponding to three putative NMDA receptor subtypes [Moriyoshi, et al. Nature 1991, 354, 31-37; Monyer et al, Science 1992, 256, 1217-1221; Kutsuwada et al, Nature 1992, 358, 36-41; Sugihara et al, Biochem. Biophys Res. Commun. 1992, 185, 826-832].
(§2) Electrophysiological Assays at NMDA Receptor Subunits
(§3) Preparation of RNA. cDNA clones encoding the NR1A, NR2A, NR2B, NR2C and NR2D rat NMDA receptor subtypes were provided by Dr. P. H. Seeburg (see, Moriyoshi et al., Nature (Lond.) 354:31-37 (1991); Kutsuwada et al., Nature (Lond.) 358:36-41 (1992) Monyer et al., Science (Washington, D.C.) 256:1217-1221 (1992); Ikeda et al., FEBS Lett. 313:34-38 (1992); Ishii et al., J. Biol. Chem. 268:2836-2843 (1993) for details of these clones or their mouse homologs). The clones were transformed into appropriate host bacteria and plasmid preparations were made with conventional DNA purification techniques. A sample of each clone was linearized by restriction enzyme digestion and cRNA was synthesized with T3 RNA polymerase. The cRNA was diluted to 400 ng/μl and stored in 1 μl aliquots at -80° C. until injection.
(§4) The Xenopus oocyte expression system. Mature female Xenopus laevis were anaesthetized (20-40 min) using 0.15% 3-aminobenzoic acid ethyl ester (MS-222) and 2-4 ovarian lobes were surgically removed. Oocytes at developmental stages IV-VI (Dumont, J. N., J. Morphol. 136:153-180 (1972)), were dissected from the ovary still surrounded by enveloping ovarian tissues. Follicle-enclosed oocytes were micro-injected with 1:1 mixtures of cRNA:NR1A+NR2A, 2B, 2C or 2D; injecting ~2,5, or 20 ng of RNA encoding each receptor subunit. NR1A encoding cRNA was injected alone at ~20 ng. Oocytes were stored in Barth's medium containing (in mM):NaCl, 88; KCl, 1; CaCl2, 0.41; Ca(NO3)2, 0.33; MgSO4, 0.82 NaHCO3, 2.4; HEPES 5, pH 7.4, with 0.1 mg/ml gentamicin sulphate. While oocytes were still surrounded by enveloping ovarian tissues the Barth's medium was supplemented with 0.1% bovine serum. Oocytes were defolliculated 1-2 days following injections by treatment with collagenase (0.5 mg/ml Sigma Type I for 0.5-1 hr) (Miledi and Woodward, J. Physiol. (Lond.) 416:601-621 (1989)) and subsequently stored in serum-free medium.
(§5) Electrical recordings were made using a conventional two-electrode voltage clamp (Dagan TEV-200) over periods ranging between 3-21 days following injection. (Woodward et al., Mol. Pharmacol. 41: 89-103 (1992)). Oocytes were placed in a 0.1 ml recording chamber continuously perfused (5-15 ml min^-1 ) with frog Ringer's solution containing (in mM):NaCl, 115; KCl, 2; CaCl2, 1.8; HEPES, 5; pH 7.4. Drugs were applied by bath perfusion. Using oocytes expressing different subunit combinations of NMDA receptor, NMDA currents were activated by co-application of glutamate (100 μm) and glycine (1-100 μm). Inhibitory potency of the novel antagonists was assessed on responses elicited by fixed concentrations of glutamate and glycine, by measuring reductions in current induced by progressively increasing concentrations of antagonist. Concentration-inhibition curves were fit with equation 1.
(§6) I/Icontrol =1/(1+([antagonist]/10^-pIC50)^n) Eq. 1
(§7) in which Icontrol is the current evoked by agonists alone, pIC50 =-log IC50, IC50 is the concentration of antagonist that produces half maximal inhibition, and n is the slope factor. (De Lean et al., Am. J. Physiol. 235:E97-102 (1978)). […]

[2] = target: T2, NMDA receptor subunits 1A/2C (Rattus norvegicus, UniProt P35439+Q00961); assay: Electrophysiological assay at NMDA receptor subunits expressed in Xenopus oocytes, 1A/2C; assay type: cell-based; details: Xenopus oocytes; glutamate 100 μm and glycine 1-100 μm; read-out: Subunits IC50, 1A/2C
T2 construct: expressed in transfected cells; host or cells: Xenopus laevis oocytes (cRNA injection; clones from Dr. P. H. Seeburg)
T2 sequence (Q00961 20-1237, other chains not shown): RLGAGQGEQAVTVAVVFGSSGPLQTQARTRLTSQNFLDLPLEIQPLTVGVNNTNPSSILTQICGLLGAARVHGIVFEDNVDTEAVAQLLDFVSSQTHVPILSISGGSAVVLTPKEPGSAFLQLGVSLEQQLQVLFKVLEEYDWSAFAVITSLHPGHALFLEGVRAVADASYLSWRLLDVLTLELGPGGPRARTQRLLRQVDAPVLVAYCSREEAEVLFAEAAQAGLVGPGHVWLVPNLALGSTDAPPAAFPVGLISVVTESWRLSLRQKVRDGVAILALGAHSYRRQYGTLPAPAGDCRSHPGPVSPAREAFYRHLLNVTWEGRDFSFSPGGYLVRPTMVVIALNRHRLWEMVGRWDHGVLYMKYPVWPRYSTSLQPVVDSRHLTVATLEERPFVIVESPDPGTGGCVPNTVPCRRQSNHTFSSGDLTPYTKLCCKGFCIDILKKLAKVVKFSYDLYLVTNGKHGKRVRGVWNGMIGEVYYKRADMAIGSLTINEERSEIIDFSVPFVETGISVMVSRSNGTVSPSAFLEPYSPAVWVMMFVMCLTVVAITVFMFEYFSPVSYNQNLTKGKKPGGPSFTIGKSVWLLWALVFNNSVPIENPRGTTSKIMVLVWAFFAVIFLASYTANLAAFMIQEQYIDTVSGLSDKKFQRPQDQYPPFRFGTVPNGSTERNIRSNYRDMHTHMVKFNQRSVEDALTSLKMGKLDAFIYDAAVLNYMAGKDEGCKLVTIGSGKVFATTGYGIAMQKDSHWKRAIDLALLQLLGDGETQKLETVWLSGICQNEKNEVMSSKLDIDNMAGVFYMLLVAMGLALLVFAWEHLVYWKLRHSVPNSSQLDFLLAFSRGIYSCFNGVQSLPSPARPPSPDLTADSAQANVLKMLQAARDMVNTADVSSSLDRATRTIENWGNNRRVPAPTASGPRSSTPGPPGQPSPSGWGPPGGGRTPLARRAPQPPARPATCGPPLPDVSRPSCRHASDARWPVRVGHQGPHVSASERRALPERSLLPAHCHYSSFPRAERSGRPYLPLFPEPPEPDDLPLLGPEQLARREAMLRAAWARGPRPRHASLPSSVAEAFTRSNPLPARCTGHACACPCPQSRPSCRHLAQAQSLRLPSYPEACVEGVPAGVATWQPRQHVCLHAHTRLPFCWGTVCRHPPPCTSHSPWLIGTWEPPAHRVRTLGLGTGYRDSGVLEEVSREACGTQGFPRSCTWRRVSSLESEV
Procedure: as §1, §2, §3, §4, §5, §6, §7

[3] = test system: Maximal Electroshock-induced Seizures; assay: Maximal electroshock-induced seizures (MES); assay type: in vivo; details: Mus musculus; mice; 50 mA, 60 pulses/sec, 1 sec
Text: Seizures were induced by application of current (50 mA, 60 pulses/sec, 0.8 sec pulse width, 1 sec duration, d.c.) through saline-coated corneal electrodes using a Ugo Basile ECT device (Model 7801). […] A tonic seizure was defined as a hindlimb extension in excess of 90 degrees from the plane of the body.

[4] = target: T3, NMDA receptor subunits 1A/2A (Rattus norvegicus, UniProt P35439+Q00959); assay: Electrophysiological assay at NMDA receptor subunits expressed in Xenopus oocytes, 1A/2A; assay type: cell-based; details: glutamate 100 μm and glycine 1-100 μm
T3 construct: expressed in transfected cells; host or cells: Xenopus laevis oocytes (cRNA injection; clones from Dr. P. H. Seeburg)
T3 sequence (Q00959 20-1464 limits assumed, other chains not shown): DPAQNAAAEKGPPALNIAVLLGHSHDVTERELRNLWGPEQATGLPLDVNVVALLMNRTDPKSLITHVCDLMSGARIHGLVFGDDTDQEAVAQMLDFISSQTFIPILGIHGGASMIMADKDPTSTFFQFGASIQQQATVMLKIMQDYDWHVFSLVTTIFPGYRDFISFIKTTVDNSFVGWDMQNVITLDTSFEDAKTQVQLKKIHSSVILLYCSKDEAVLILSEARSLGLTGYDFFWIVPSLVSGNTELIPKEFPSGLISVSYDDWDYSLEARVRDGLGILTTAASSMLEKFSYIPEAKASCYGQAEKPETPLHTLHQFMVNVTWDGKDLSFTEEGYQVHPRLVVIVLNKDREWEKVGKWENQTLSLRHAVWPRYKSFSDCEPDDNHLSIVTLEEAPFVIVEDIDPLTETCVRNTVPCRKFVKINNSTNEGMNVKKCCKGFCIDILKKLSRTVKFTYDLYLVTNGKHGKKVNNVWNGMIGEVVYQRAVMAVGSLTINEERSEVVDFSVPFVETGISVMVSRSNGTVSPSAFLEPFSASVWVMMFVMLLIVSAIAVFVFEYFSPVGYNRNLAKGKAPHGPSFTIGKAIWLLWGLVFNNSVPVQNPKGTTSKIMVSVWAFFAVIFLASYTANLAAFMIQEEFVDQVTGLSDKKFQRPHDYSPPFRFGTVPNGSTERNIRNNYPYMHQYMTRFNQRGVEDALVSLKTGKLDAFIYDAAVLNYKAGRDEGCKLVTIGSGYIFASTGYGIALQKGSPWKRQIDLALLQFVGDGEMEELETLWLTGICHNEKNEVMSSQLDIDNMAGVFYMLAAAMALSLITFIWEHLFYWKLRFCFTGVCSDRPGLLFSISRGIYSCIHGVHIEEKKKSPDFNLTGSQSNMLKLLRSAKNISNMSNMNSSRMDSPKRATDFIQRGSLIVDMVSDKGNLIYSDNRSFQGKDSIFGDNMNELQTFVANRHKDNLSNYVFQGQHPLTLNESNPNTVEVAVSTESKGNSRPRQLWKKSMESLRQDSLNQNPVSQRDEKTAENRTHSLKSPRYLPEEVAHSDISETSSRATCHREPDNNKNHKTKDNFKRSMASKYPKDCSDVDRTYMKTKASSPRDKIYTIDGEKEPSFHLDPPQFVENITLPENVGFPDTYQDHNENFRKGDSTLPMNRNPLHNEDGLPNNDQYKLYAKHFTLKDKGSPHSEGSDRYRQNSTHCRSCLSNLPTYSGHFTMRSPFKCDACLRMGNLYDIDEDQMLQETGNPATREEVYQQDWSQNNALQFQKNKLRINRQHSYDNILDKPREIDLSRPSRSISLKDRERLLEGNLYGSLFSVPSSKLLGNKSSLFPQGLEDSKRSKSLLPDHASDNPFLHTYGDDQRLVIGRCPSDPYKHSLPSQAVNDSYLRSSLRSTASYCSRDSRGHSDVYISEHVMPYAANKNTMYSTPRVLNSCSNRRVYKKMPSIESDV
Procedure: as §1, §2, §3, §4, §5, §6, §7

Row | IC50 [1] [µM] | IC50 [2] [µM] | IC50 [4] [µM] | SMILES | ED50 [3] [mg/kg]
1 | 0.3 | > 100 | – | Nc1ccccc1OCCN1CCC(Cc2ccccc2)CC1 [Ex. 61, 4-Benzyl-1-[2-(2-aminophenoxy)ethyl]piperidine] | 2.5
2 | 0.02 | 230 | 250 | Cc1ccc(CC2(O)CCN(CCOc3ccc(O)cc3)CC2)cc1.Cl [Ex. 154, 1-[2-(4-Hydroxyphenoxy)ethyl]-4-hydroxy-4-(4-methylbenzyl)piperidine hydrochloride] | 1.5
3 | 1 | 100 | 70 | Clc1ccc(CC2CCN(CCOc3ccccc3)CC2)cc1 [Ex. 24, 4-(4-Chlorobenzyl)-1-(2-phenoxyethyl)piperidine hydrochloride] | 2
4 | 17 | > 100 | – | O=c1[nH]c2ccccc2n1C1CCN(CCCOc2ccccc2)CC1 [Ex. 96, 4-(2-Keto-1-benzimidazolinyl)-1-(3-phenoxypropyl)piperidine hydrobromide] | 3.5
5 | 0.02 | > 300 | 55 | CCc1ccc(CC2CCN(CCOc3ccc(O)cc3)CC2)cc1 [Ex. 120, hydrochloride] | 2
6 | 0.03 | 220 | 75 | Cc1ccc(CC2CCN(CCOc3ccc(O)cc3)CC2)cc1 [Ex. 115, 1-[2-(4-Hydroxyphenoxy)ethyl]-4-(4-methylbenzyl)piperidine hydrochloride] | 0.7
7 | 0.02 | 301 | 110 | Oc1ccc(C2CCN(CCCCc3ccccc3)CC2)cc1 [Ex. 167, 4-(4-Hydroxyphenyl)-1-(4-phenylbutyl)piperidine] | 0.3
8 | 0.8 | 100 | 50 | Clc1ccc(CC2CCN(CCCOc3ccccc3)CC2)cc1 [Ex. 30, 4-(4-Chlorobenzyl)-1-(3-phenoxypropyl)piperidine hydrobromide] | 6
9 | 0.02 | 70 | 48 | Fc1ccc(CC2CCN(CCOc3ccc4[nH]c(=S)[nH]c4c3)CC2)cc1 [Ex. 175, 4-(4-Fluorobenzyl)-1-(2-(2-thioxobenzimidazol-5-oxy)ethyl)piperidine] | 8
10 | 3 | > 100 | 60 | Nc1ccccc1OCCN1CCC(Cc2ccc(Cl)cc2)CC1 [Ex. 74, 4-(4-Chlorobenzyl)-1-[2-(2-aminophenoxy)ethyl]piperidine] | 3.5
11 | 0.16 | 230 | 23 | CC(C)(C)c1ccc(CC2CCN(CCOc3ccc(O)cc3)CC2)cc1 [Ex. 132, 1-[2-(4-Hydroxyphenoxy)ethyl]-4-(4-t-butylbenzyl)piperidine hydrochloride] | 1
12 | 0.1 | > 100 | 25 | O=c1[nH]c2ccc(OCCN3CCC(Cc4ccccc4)CC3)cc2[nH]c1=O [Ex. 58, 4-Benzyl-1-[2-(2,3-dioxoquinoxalin-6-oxy)ethyl]piperidine] | 5.1
13 | 0.05 | 170 | 170 | Oc1ccc(OCCN2CCC(Cc3ccc(C(F)(F)F)cc3)CC2)cc1 [Ex. 129, 1-[2-(4-Hydroxyphenoxy)ethyl]-4-(4-trifluorobenzyl)piperidine hydrochloride] | 2
14 | 0.02 | > 300 | – | Cl.Oc1ccc(OCCN2CCC(Cc3ccc(F)cc3)CC2)cc1F [Ex. 150, 1-[2-(4-Hydroxy-3-fluorophenoxy)ethyl]-4-(4-fluorobenzyl)piperidine hydrochloride] | 3
15 | 1 | > 100 | – | COc1ccc(OCCN2CCC(Cc3ccccc3)CC2)cc1 [Ex. 70] | 1.5
16 | 2 | > 100 | – | Fc1ccc(CC2CCN(CCOc3ccc(F)cc3)CC2)cc1 [Ex. 33, 4-(4-Fluorobenzyl)-1-(2-(4-fluorophenoxy)ethyl)piperidine hydrochloride] | 4
17 | 0.5 | > 100 | – | Nc1cccc(OCCN2CCC(Cc3ccccc3)CC2)c1 [Ex. 63, 4-Benzyl-1-[2-(3-aminophenoxy)ethyl]piperidine] | 3
18 | 0.25 | – | 70 | Oc1ccc(OCCN2CCC(Cc3ccc4c(c3)CCCC4)CC2)cc1 [Ex. 139, 4-((5,6,7,8-Tetrahydro-2-naphthyl)methyl)-1-(2-(4-hydroxyphenoxy)ethyl)piperidine hydrochloride] | 4.5
19 | 1.2 | > 100 | – | Cl.O=Cc1cccc(OCCN2CCC(Cc3ccccc3)CC2)c1 [Ex. 15, 3-((2-(4-Benzylpiperidin-1-yl)ethyl)oxy)benzaldehyde hydrochloride] | 100
20 | – | – | – | Nc1ccc(OCCN2CCC(Cc3ccccc3)CC2)cc1 [Ex. 65, 4-Benzyl-1-[2-(4-aminophenoxy)ethyl]piperidine] | 6
21 | 0.35 | – | – | NC(=O)Cc1cccc(OCCN2CCC(Cc3ccccc3)CC2)c1 [Ex. 19, 1-(2-(3-(Aminocarbonylmethyl)phenoxy)ethyl)-4-benzylpiperidine] | 6
22 | 0.5 | > 100 | – | ON=Cc1cccc(OCCN2CCC(Cc3ccccc3)CC2)c1 [Ex. 16, 3-((2-(4-Benzylpiperidin-1-yl)ethyl)oxy)benzaldehyde oxime] | 2.5
23 | 0.3 | > 100 | – | Nc1ccc(OCCN2CCC(Cc3ccccc3)CC2)cc1N [Ex. 57, 4-Benzyl-1-[2-(3,4-diaminophenoxy)ethyl]piperidine] | 6.5
24 | 5 | > 100 | – | O=[N+]([O-])c1ccc(OCCN2CCC(Cc3ccc(Cl)cc3)CC2)cc1 [Ex. 27, 4-(4-Chlorobenzyl)-1-(2-(4-nitrophenoxy)ethyl)piperidine hydrobromide] | 5
25 | 0.31 | > 100 | – | Nc1cccc(OCCN2CCC(Cc3ccccc3)CC2)c1N [Ex. 53, 4-Benzyl-1-[2-(2,3-diaminophenoxy)ethyl]piperidine] | 2.5
26 | 1 | > 100 | – | c1ccc(CCN2CCC(Cc3ccccc3)CC2)cc1 [Ex. 83, 4-Benzyl-1-(2-phenylethyl)piperidine hydrochloride] | 2
27 | 5 | > 100 | – | OC1(Cc2ccccc2)CCN(CCc2ccccc2)CC1 [Ex. 90, 4-Benzyl-4-hydroxy-1-(2-phenylethyl)piperidine hydrochloride] | 5
